Reference: ChEMBL document CHEMBL1201862, “PubChem BioAssay data set” (2004)
The source made the active and inactive calls.

Tests used:
[1] = target: T1, RNA-binding protein pos-1 (Caenorhabditis elegans, UniProt G5EF15); assay: inhibitors of POS-1/mex-3 RNA binding, dose response, biochemical, fluorescence polarization (AID 1964);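 note: purified POS-1 fused to maltose binding protein made in E. coli; potency of compounds blocking POS-1 binding to fluorescent RNA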
T1 sequence (G5EF15 whole entry): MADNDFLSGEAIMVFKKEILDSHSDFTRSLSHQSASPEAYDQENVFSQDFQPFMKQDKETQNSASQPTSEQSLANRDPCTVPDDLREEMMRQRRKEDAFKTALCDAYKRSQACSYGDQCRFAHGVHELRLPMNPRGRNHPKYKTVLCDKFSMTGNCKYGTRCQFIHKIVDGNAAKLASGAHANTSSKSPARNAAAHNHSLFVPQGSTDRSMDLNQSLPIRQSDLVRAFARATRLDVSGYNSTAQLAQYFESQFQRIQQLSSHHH

[2] = target: T2, SUMO-activating enzyme (Homo sapiens, UniProt Q9UBT2); assay: SUMOylation inhibitor hit validation, confirmation, SUMOylation inhibitor project, biochemical, AlphaScreen (AID 2018); assay type: functional
T2 sequence (Q9UBE0 whole entry): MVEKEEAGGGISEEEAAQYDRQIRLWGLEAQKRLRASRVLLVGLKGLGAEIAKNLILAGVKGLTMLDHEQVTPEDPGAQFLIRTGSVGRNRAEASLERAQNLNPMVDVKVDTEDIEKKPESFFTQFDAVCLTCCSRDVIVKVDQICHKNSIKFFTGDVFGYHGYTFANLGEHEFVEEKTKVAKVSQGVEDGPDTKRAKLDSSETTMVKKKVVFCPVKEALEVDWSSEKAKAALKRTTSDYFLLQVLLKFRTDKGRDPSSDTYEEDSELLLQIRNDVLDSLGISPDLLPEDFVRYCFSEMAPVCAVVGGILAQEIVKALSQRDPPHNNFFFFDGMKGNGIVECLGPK
T2 sequence (Q9UBT2 whole entry): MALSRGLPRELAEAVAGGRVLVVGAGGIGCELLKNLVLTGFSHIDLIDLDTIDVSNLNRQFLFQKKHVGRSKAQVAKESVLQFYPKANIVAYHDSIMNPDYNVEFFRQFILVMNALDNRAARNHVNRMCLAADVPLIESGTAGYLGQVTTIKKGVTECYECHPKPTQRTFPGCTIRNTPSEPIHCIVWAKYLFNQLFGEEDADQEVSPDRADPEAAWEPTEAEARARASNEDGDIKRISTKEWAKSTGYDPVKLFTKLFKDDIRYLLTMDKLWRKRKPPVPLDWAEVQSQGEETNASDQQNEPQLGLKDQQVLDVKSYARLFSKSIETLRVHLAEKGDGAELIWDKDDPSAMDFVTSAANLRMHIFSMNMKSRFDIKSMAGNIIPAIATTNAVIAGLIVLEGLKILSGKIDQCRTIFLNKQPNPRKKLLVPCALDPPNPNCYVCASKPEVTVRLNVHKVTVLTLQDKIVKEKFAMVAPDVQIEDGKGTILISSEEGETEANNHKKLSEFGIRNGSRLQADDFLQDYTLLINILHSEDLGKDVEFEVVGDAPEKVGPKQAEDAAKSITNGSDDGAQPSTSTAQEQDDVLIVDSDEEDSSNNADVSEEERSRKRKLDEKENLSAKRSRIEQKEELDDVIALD

[3] = enhancers of respiration in Yfh1-depleted yeast, dose response, Friedreich's ataxia, plus single-dose screen (AID 1465); assay type: functional;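 note: yeast depleted of Yfh1p frataxin homolog grown on glycerol needing respiration; WST-1 tetrazolium dye reduction as measure of cellular dehydrogenase metabolic activity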
[4] = target: T3, Zinc finger protein mex-5 (Caenorhabditis elegans, UniProt Q9XUB2); assay: MEX-5/TCR-2 RNA interaction inhibitors, dose response, biochemical, C. elegans, fluorescence polarization (AID 1960)
T3 sequence (Q9XUB2 whole entry): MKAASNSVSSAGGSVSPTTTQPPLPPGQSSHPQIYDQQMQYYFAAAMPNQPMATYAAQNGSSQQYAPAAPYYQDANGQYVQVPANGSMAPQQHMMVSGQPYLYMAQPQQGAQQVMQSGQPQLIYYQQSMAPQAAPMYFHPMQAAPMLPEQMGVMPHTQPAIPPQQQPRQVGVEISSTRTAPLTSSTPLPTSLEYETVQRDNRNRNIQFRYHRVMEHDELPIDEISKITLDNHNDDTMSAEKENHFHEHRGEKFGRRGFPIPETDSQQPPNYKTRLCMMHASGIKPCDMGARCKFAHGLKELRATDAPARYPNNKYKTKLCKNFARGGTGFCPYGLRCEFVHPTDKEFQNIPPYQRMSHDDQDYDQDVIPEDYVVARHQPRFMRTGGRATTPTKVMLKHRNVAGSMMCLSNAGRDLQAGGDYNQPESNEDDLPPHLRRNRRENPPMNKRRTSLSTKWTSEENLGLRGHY

[5] = target: T2, SUMO-activating enzyme; assay: inhibitors of in vitro SUMOylation cascade, primary screen, biochemical, HTRF, uHTS (AID 2006); assay type: protein-complex assay
[6] = target: Cytochrome P450 2C19 (Homo sapiens, UniProt P33261); assay: qHTS Assay for Inhibitors and Substrates of Cytochrome P450 2C19. [Related pubchem assays: 410 ]; assay type: ADME; conditions: read-out: Potency
[7] = target: T4, Streptokinase A (Streptococcus pyogenes serotype M1, UniProt P10520); assay: S. pyogenes streptokinase expression inhibitors, potency, dose response, plasminogen activation absorbance, OD405 (AID 1914); assay type: functional, Streptococcus pyogenes M1 GAS;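 note: secreted streptokinase activity via plasminogen activation per viability signal from cell pellet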
T4 sequence (P10520 whole entry): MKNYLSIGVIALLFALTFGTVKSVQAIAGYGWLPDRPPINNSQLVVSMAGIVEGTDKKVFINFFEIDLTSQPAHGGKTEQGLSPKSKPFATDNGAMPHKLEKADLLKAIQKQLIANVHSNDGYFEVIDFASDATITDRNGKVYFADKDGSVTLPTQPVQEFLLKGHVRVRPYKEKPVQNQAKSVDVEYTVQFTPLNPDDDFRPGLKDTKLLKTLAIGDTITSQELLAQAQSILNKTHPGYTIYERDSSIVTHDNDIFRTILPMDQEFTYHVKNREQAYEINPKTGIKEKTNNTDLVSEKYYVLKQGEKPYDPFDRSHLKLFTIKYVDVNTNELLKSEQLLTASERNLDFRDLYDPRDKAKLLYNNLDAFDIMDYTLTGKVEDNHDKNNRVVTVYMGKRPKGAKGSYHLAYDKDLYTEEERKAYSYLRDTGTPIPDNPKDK

[8] = tested on: Streptococcus; assay: Group A Streptococcus viability loss, dose response, counter-screen for streptokinase expression inhibitor project, luminescence, BacTiterGlo (AID 1915); assay type: functional, organism-based;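 note: potency for reduction of bacterial viability or growth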
[9] = target: Photoreceptor-specific nuclear receptor (Homo sapiens, UniProt Q9Y5X4); assay: NR2E3 inverse agonists, dose response, biochemical, TR-FRET (AID 463256); assay type: functional
Sequence of Photoreceptor-specific nuclear receptor (Q9Y5X4 whole entry): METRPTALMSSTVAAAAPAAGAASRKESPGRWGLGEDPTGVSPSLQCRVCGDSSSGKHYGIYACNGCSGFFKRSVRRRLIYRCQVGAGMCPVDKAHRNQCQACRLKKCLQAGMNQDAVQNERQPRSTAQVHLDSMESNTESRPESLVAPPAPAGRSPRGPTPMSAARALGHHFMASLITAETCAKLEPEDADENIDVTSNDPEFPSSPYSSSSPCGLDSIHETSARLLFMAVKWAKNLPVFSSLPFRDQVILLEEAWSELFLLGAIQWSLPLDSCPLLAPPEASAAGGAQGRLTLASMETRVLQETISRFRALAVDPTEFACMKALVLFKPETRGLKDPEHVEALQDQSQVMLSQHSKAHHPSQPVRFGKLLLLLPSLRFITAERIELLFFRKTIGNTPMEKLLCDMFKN

[10] = target: Peroxisome proliferator-activated receptor gamma/Nuclear receptor corepressor 2 (Homo sapiens, UniProt P37231+Q9Y618); assay: Counterscreen for NR2E3 inverse agonists: TR-FRET-based biochemical high throughput dose response assay to identify inverse agonists of the interaction between peroxisome proliferator-activated receptor gamma (PPARg) and nuclear receptor co-repressor 2 (NCOR2).; assay type: functional
[11] = tested on: Streptococcus sp. 'group A'; assay: growth inhibition of control SK(-) GAS strain, dose response, counter-screen for streptokinase expression inhibitor project, luminescence, kanamycin, BacTiterGlo, confirmation (AID 1900); assay type: functional, organism-based
[12] = target: NADPH oxidase 1 (Homo sapiens, UniProt Q9Y5S8); assay type: functional, cell-based;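 note: Cell-based assay with luminescence read-out, IC50 derived from inhibitor dose-response curves; intracellular ROS from endogenous NOX1 in intact HT29 colon cancer cells; potency of inhibitors that lower the ROS luminescence signal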
Sequence of NADPH oxidase 1 (Q9Y5S8 whole entry): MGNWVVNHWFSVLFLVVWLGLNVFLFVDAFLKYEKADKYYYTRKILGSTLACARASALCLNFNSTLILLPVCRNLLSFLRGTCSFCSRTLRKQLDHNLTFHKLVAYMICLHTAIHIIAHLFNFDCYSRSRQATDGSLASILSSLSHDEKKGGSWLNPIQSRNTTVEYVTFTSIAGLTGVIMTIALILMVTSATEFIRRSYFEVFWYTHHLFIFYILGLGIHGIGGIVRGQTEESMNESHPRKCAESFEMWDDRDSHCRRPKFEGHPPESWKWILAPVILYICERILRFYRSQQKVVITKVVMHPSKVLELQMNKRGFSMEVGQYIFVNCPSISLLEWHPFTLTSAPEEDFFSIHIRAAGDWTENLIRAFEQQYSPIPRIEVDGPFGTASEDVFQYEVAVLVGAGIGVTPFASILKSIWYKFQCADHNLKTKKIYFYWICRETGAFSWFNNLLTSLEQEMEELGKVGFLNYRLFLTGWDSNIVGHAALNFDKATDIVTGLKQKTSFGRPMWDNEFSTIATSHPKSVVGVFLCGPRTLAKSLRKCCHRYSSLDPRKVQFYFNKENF

[13] = target: 5-hydroxytryptamine receptor 1A (Homo sapiens, UniProt P08908); assay type: functional
Sequence of 5-hydroxytryptamine receptor 1A (P08908 whole entry): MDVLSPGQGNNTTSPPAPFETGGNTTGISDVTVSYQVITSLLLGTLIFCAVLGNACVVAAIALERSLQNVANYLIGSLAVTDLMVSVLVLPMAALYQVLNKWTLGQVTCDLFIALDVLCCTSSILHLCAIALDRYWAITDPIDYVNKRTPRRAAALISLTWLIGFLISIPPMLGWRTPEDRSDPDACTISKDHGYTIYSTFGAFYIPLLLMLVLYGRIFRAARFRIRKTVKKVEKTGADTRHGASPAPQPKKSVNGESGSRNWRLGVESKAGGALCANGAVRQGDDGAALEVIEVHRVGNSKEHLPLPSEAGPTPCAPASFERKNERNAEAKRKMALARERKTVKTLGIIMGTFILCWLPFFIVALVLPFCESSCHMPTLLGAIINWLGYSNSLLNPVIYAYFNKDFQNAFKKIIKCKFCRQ

[14] = target: Sphingosine 1-phosphate receptor 2 (Homo sapiens, UniProt O95136); assay: Dose Response Cell Based Assay for Agonists of the S1P2 Receptor of Purchased Analogues. [Related pubchem assays: 729, 843, 854, 736 ]; assay type: functional
Sequence of Sphingosine 1-phosphate receptor 2 (O95136 whole entry): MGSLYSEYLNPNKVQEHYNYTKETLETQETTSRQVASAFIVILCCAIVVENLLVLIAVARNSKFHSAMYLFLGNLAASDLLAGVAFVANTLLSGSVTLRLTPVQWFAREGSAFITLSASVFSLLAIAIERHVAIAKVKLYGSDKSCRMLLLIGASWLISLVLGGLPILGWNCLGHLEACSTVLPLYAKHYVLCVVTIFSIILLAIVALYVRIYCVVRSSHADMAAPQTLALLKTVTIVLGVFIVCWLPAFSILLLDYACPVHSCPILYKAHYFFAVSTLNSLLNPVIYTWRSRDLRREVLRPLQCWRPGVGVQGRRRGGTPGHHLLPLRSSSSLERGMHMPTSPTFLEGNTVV

[15] = target: Bcl-2-like protein 10 (Homo sapiens, UniProt Q9HD36); assay: Biochemical TR3 FP assay of Bcl-B inhibitor potency, EC50 (AID 1243); assay type: functional
Sequence of Bcl-2-like protein 10 (Q9HD36 whole entry): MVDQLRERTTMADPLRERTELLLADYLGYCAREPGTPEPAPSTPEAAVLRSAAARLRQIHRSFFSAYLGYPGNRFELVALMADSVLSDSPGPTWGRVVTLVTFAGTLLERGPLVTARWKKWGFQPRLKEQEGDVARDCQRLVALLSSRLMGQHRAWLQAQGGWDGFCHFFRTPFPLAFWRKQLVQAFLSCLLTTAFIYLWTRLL

[16] = target: T5, CAAX prenyl protease 2 (Saccharomyces cerevisiae S288c, UniProt Q03530); assay type: biochemical
T5 sequence (Q03530 whole entry): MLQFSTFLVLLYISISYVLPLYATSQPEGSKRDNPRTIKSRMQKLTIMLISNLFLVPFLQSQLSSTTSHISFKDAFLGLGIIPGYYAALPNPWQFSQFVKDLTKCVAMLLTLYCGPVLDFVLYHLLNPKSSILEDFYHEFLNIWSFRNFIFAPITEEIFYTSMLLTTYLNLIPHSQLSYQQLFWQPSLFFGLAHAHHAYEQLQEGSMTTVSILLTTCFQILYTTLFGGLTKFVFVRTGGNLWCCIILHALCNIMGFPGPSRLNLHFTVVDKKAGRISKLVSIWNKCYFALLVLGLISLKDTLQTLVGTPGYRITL

[17] = target: T6, DNA repair and recombination protein RAD54-like (Homo sapiens, UniProt Q92698); assay: inhibitors of human RAD54 branch migration, confirmation, biochemical, fluorescence, cherry-picked samples, dose series (AID 651657); assay type: functional
T6 sequence (Q92698 whole entry): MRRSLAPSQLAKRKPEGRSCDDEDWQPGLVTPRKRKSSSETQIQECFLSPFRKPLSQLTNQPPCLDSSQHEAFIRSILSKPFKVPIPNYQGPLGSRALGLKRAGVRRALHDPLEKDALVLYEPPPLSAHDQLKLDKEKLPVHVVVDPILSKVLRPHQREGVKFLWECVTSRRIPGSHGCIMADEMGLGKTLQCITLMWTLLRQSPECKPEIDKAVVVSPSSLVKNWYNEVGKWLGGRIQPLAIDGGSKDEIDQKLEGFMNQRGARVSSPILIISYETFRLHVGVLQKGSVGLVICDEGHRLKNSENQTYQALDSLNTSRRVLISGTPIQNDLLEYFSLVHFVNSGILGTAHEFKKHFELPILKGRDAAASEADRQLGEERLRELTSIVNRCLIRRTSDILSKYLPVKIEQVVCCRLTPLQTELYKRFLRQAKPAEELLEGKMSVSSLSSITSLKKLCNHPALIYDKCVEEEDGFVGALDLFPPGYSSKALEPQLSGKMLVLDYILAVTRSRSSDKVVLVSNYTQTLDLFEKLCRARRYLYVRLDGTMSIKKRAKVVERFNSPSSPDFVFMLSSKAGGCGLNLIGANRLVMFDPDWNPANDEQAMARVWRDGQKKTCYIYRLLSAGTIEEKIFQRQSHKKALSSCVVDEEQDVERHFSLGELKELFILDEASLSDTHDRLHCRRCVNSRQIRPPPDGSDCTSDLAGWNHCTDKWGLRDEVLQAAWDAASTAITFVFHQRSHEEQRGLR

[18] = tested on: Vero; assay: host cell cytotoxicity of antiviral hits, dose response, cytotoxicity control for West Nile virus antiviral project, secondary assay (AID 1650); assay type: functional; conditions: Chlorocebus sabaeus
[19] = target: Trypsin (Sus scrofa, UniProt P00761); assay: porcine trypsin inhibitors, dose response, selectivity assay for Rce1 protease inhibitor project, biochemical, quenched peptide fluorescence, cherry-pick (AID 488789)
Sequence of Trypsin (P00761 whole entry): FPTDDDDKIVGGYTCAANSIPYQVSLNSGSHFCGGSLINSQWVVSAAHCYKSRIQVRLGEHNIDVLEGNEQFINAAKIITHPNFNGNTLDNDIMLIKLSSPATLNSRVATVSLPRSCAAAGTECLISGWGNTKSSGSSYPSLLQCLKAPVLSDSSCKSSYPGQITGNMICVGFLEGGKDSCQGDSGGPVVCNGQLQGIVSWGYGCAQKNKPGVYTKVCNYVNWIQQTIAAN

[20] = target: T7, DNA repair protein RAD52 homolog (Homo sapiens, UniProt P43351); assay type: functional, biochemical
T7 sequence (P43351 whole entry): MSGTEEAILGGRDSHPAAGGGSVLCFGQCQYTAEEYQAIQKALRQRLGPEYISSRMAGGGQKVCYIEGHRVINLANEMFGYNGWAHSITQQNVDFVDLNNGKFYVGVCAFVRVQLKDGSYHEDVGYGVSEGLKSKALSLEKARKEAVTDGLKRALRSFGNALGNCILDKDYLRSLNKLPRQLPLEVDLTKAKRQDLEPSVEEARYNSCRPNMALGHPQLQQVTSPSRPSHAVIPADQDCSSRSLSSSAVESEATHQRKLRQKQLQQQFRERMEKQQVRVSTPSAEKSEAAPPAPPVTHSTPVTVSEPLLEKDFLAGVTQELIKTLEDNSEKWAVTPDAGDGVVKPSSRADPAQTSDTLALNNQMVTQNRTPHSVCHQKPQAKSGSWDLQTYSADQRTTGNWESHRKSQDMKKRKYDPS

[21] = tested on: Vero; assay: West Nile virus antiviral activity, cell-based, CPE readout (AID 1621); assay type: functional; conditions: Chlorocebus sabaeus
[22] = target: Mothers against decapentaplegic homolog 3 (Homo sapiens, UniProt P84022); assay: SMAD3 transcription factor inhibitors, dose response (AID 715); assay type: functional
Sequence of Mothers against decapentaplegic homolog 3 (P84022 whole entry): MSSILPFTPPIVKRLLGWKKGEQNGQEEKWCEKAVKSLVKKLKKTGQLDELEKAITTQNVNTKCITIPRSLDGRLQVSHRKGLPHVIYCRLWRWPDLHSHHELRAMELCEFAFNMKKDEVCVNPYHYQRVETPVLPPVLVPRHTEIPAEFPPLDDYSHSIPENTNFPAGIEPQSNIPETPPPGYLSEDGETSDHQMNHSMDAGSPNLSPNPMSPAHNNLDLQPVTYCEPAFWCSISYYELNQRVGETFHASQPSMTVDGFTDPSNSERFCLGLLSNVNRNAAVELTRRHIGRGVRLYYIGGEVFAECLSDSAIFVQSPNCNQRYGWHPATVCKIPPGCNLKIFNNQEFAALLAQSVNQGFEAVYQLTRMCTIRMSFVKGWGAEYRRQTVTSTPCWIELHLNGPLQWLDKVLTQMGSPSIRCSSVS

[23] = target: Peroxisome proliferator-activated receptor gamma/Nuclear receptor coactivator 1 (Homo sapiens, UniProt P37231); assay: TR-FRET dose response biochemical High Throughput Screening assay for agonists of the steroid receptor coactivator 1 (SRC-1) recruitment by the peroxisome proliferator-activated receptor gamma (PPAR gamma): non-selective agonists. [Related pubchem assays (depositor defined):AID1300, AID1808, AID504735, AID631]; assay type: protein assay
[24] = target: Peroxisome proliferator-activated receptor gamma/Nuclear receptor coactivator 2 (Homo sapiens, UniProt P37231); assay: (§1) TR-FRET dose response biochemical High Throughput Screening assay for agonists of the steroid receptor coactivator 2 (SRC-2) recruitment by the peroxisome proliferator-activated receptor gamma (PPAR gamma): non-selective agonists. [Related pubchem assays: 1297, 1032 ]; assay type: functional
[25] = target: Peroxisome proliferator-activated receptor gamma/Nuclear receptor coactivator 3 (Homo sapiens, UniProt P37231); assay: as §1, with “3 (SRC-3)” for “2 (SRC-2)”, “1301 (Confirmation screen.), 1048 (Primary screen.)]” for “1297, 1032 ]”; assay type: functional
[26] = target: T8, Estrogen receptor beta (Homo sapiens, UniProt Q92731); assay: ERβ–SRC-3 coactivator interaction inhibitors, confirmation, orthogonal assay, biochemical, ELISA, streptavidin-HRP readout (AID 1060)
T8 sequence (Q92731 whole entry): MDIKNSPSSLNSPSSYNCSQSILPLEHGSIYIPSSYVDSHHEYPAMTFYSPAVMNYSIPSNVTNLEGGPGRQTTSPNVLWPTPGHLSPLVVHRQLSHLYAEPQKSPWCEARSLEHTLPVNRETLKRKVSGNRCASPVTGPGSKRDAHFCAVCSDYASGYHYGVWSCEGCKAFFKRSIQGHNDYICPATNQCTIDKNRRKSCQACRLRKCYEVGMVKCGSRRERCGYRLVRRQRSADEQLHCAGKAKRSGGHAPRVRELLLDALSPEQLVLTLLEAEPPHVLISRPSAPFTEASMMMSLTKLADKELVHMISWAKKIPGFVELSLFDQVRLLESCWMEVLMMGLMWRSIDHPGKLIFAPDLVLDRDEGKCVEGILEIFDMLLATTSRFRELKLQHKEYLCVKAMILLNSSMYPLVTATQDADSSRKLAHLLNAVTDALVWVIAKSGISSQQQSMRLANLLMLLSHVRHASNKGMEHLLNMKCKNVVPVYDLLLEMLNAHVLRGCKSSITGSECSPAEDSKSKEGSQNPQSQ

[27] = target: T8, Estrogen receptor beta
[28] = target: Aryl hydrocarbon receptor (Homo sapiens, UniProt P35869); assay: Luminescence-based cell-based high throughput dose response assay for activators of the Aryl Hydrocarbon Receptor (AHR). [Related pubchem assays: 2796 (Primary screen (AHR activators in singlicate)), 2845 (Confirmation screen (AHR activators in triplicate)), 434939 (Counterscreen (PXR activators in triplicate)), 2804 (Summary (AHR activators))]; assay type: ADME
Sequence of Aryl hydrocarbon receptor (P35869 whole entry): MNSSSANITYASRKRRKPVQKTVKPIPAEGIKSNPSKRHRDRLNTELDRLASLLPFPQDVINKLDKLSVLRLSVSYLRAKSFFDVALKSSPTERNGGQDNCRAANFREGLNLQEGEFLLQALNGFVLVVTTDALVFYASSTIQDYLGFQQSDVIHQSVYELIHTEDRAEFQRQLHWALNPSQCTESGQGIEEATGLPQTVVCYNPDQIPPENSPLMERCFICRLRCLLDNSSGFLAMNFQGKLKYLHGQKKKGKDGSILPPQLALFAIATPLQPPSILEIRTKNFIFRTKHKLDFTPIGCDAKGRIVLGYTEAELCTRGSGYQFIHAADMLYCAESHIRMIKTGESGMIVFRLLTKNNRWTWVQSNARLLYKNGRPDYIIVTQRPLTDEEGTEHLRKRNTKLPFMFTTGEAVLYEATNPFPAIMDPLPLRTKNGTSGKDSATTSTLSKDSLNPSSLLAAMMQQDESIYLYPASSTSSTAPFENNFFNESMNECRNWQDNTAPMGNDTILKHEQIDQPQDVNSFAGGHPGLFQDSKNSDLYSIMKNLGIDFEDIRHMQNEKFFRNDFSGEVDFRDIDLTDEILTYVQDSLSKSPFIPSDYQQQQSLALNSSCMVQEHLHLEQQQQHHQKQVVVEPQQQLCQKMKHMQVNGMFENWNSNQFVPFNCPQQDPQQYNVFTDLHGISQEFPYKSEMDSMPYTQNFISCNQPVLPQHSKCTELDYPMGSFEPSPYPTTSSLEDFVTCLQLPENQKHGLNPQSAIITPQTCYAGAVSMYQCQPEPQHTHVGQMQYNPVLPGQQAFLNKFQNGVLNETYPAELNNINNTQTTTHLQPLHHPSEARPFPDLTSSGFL

Structure (SMILES): COc1cc([N+](=O)[O-])cc(/C=N/NC(=O)CC#N)c1O
- EC50 [1]: > 300 µM (inconclusive)
- IC50 [2]: 1.15 µM (active)
- EC50 [3]: > 100 µM (active)
- EC50 [4]: > 300 µM (inconclusive)
- IC50 [5]: 8.76 µM (active)

Structure (SMILES): CC(C)C[C@H](NC(=O)[C@@H](NC(=O)N[C@@H](Cc1ccccc1)C(=O)O)[C@H]1CCN=C(N)N1)C(=O)N[C@H](C=O)Cc1ccccc1
- AC50 [6]: 10 µM (inconclusive)

Structure (SMILES): O=C(COc1ccc(Cl)cc1Cl)Nc1ccc(-c2ccc(N3CCOCC3)nn2)cc1
- EC50 [7]: > 150 µM (not active)
- EC50 [8]: > 150 µM (not active)
- IC50 [9]: 1.43 µM (active)
- IC50 [10]: 1.51 µM (active)
- EC50 [11]: > 150 µM (not active)

Structure (SMILES): C=C(NNc1c(Cl)c(Cl)nc(C(=O)O)c1Cl)c1ccc2c(c1)OCCO2
- IC50 [12]: > 17 µM (not active)

Structure (SMILES): Cc1c(CN2CCN(c3cccc(C(F)(F)F)c3)CC2)c(=O)n(-c2ccccc2)n1C
- EC50 [13]: > 50 µM (not active)

Structure (SMILES): Cc1cc(C(=O)CN2C(=O)C(=O)N(C3CCCC3)C2=O)c(C)n1Cc1ccccc1
- EC50 [14]: > 30 µM (not active)

Structure (SMILES): Nc1ccc(Oc2ccc(N)c(N)c2)cc1N
- EC50 [15]: 5.37 µM (active)

Structure (SMILES): CCN(CC)CCCNC(=O)c1cc2c(-c3cccc(OC)c3)nn(C)c2s1
- AC50 [16]: 77.8 µM (active)
- AC50 [17]: 34.1 µM (active)
- CC50 [18]: > 100 µM (active)
- AC50 [19]: 9.95 µM (active)
- AC50 [20]: 6.07 µM (active)
- IC50 [21]: 19.9 µM (active)

Structure (SMILES): CCN1CCCC1CNC(=O)CSc1cc(=O)n(C)c2cc(Cl)ccc12 (stereo not drawn)
- IC50 [22]: 8.7 µM (active)
- EC50 [23]: > 79.4 µM (inactive)
- EC50 [24]: > 79.4 µM (not active)
- EC50 [25]: > 79.4 µM (not active)

Structure (SMILES): O=C(c1cc2ncc(Br)cn2n1)N1CCOCC1
- IC50 [26]: 23 µM (not active)
- IC50 [27]: 9.16 µM (active)

Structure (SMILES): Cc1nc(C)c(C(=O)N/N=C/c2c[nH]c3ccccc23)s1
- EC50 [28]: > 91.7 µM (not active)
